# Measurements published in PubChem BioAssay AID1996.
# Settings: buffer; pH 7.4; 200.0 µM
row,Structure (SMILES),solubility kinetic
1,Cc1ccc(C2CCN(C(=S)Nc3cccc(Cl)c3)C2)cc1 (configuration not stated),< 0.4 µg/mL
2,Cc1cc(=O)[nH]c(SCC(=O)NC(C)C2CC3CCC2C3)c1C#N (configuration not stated),> 51.8 µg/mL
3,CC(C)(C)c1ccc(NC(=O)CCNC(=O)c2ccco2)cc1,> 47.2 µg/mL
4,Cc1cc(-c2cccs2)c(C#N)c(=S)[nH]1,28.3 µg/mL
5,COc1ccc(OC)c(NC(=O)COC(=O)CCS(=O)(=O)c2ccc(Cl)cc2)c1,27.5 µg/mL
6,Cc1ccc2[nH]cc(CCNC(=O)c3ccc4c(c3)OCO4)c2c1,38.3 µg/mL
7,Cc1c(C(=O)N2CCC2)oc2ccc(Cl)cc12,15.6 µg/mL
8,COc1ccccc1C(=O)C1CCCN(C(=O)c2ccco2)C1 (configuration not stated),> 47 µg/mL
9,O=C(NC1CCS(=O)(=O)C1)c1cccc(Br)c1 (configuration not stated),> 47.7 µg/mL
10,CC(C)NC(=S)N1CCC(Cc2ccccc2)CC1,24.4 µg/mL
11,Cc1cc(C(=O)NCCC(C)C)c2ccccc2n1,31 µg/mL
12,CN(CC(=O)N1CCc2ccccc2C1)c1ccccc1,> 42.1 µg/mL
13,CCc1ccc(NC2=CC(=O)C(=O)c3ccccc32)cc1,2.4 µg/mL
14,Cc1onc(-c2ccccc2)c1C(=O)N=C(N)c1ccc(C(F)(F)F)cc1,< 0.3 µg/mL
15,Cc1cc(C)cc(-c2nnc(SCC(=O)NC3CC3)o2)c1,> 45.5 µg/mL
16,O=c1c2ccccc2nc(-c2ccco2)n1CCc1ccc(O)cc1,7.9 µg/mL
17,Cc1ccccc1Nc1nc(N)nc(CSc2nncn2C)n1,> 49.3 µg/mL
18,CC(=O)Nc1ccc(NS(=O)(=O)c2ccc(C)cc2)c([N+](=O)[O-])c1,> 52.4 µg/mL
19,CCCCC(=O)NC1(C(F)(F)F)NC(=O)N(Cc2ccccc2)C1=O (configuration not stated),46.1 µg/mL
20,O=C(Oc1ccccc1C(=O)N1CCOCC1)c1ccc(F)cc1,45.1 µg/mL
21,CCC(=O)N(CCC1(C(C)C)CCOC(C)(C)C1)C(C)c1cccs1 (configuration not stated),42.2 µg/mL
22,O=C(COC(=O)c1c(F)cccc1Cl)NC1CCCCC1,> 47.1 µg/mL
23,CC(C(=O)OCC(=O)N1CCCCC1)N1C(=O)c2ccccc2C1=O (configuration not stated),> 51.7 µg/mL
24,C#CC1CCCCC1NC(=O)Nc1cnccc1C(F)(F)F (configuration not stated),43.2 µg/mL
25,O=c1c2ccccc2nc(/C=C/c2ccc(O)cc2)n1-c1ccccc1O,5.2 µg/mL

row,Structure (SMILES),solubility kinetic
1,CCOC(=O)C1=C(O)CSC1=Nc1ccc(C)cc1,> 41.6 µg/mL
2,CN(Cc1ccc(F)cc1)Cc1nc(-c2ccccc2)no1,4.4 µg/mL
3,Cc1ccc(NC(=O)CCn2c(=O)[nH]c3ccsc3c2=O)cc1,8.2 µg/mL
4,CC(C)C1CC(C(=O)Nc2ccccc2)C(=O)O1 (configuration not stated),34.9 µg/mL
5,O=[N+]([O-])c1ccc(O)c(C=Nc2cccc3ccccc23)c1,24.6 µg/mL
6,CCOc1cc(C=O)ccc1OCC(=O)N1CCCC1,> 41.6 µg/mL
7,Cc1cc(C)nc(Nc2ccc(O)cc2)n1,> 32.3 µg/mL
8,COc1ccc(NC(=O)C2CCCN(C(=O)Nc3ccc(F)cc3)C2)cc1 (configuration not stated),12.4 µg/mL
9,CN(C(=O)Oc1ccc(F)cc1)c1ccccc1,24 µg/mL
10,COc1cccc(N/C=C/C(=O)c2ccc(C)cc2)c1,2.4 µg/mL
11,CC(=O)N[C@@H](Cc1ccc(OC(F)(F)F)cc1)C(=O)O,> 43.7 µg/mL
12,CC1CCCCC12NC(=O)N(CC(=O)Nc1nccs1)C2=O (configuration not stated),> 48.4 µg/mL
13,COc1ccc(OC)c(/C=C2\SC(N3CCCC(C)C3)=NC2=O)c1 (configuration not stated),22.1 µg/mL
14,O=C(Nc1cnccn1)Nc1ccccc1F,8.7 µg/mL
15,O=C(Nc1cccc(F)c1)Nc1ccc(Cl)cn1,< 0.2 µg/mL
16,O=C(CN1CCCC1)Nc1cccc(Cl)c1Cl,28.4 µg/mL
17,Cn1ccnc1C(=O)c1ccc(S(=O)(=O)N2CCCC2)cc1,> 47.9 µg/mL
18,CCN(CC)c1ccc(CNc2nc3ccccc3n2CC)cc1,10.9 µg/mL
19,O=C(N/C(=C/c1cccnc1)C(=O)N1CCOCC1)c1ccccc1Cl,> 55.8 µg/mL
20,CN(Cc1ccccc1)c1c([N+](=O)[O-])c(=O)n(C)c2ccccc12,2.7 µg/mL
21,Cc1nc(N)c(C#N)c(-c2cccnc2)c1-c1ccccc1,0.6 µg/mL
22,CC(C)(C)Nc1ncnc2sc(-c3ccccc3)cc12,< 0.2 µg/mL
23,O=C1NC(=O)N(CCC2=CCCCC2)C(=O)/C1=C/c1cccs1,26.1 µg/mL
24,CN(C)C=Nc1nonc1-c1ccccc1,24.4 µg/mL
25,Cc1ccccc1OC(C)C(=O)Nc1cccnc1 (configuration not stated),36.6 µg/mL

row,Structure (SMILES),solubility kinetic
1,CCn1cc(C2=NC(CCSC)CO2)c2ccccc21 (configuration not stated),34 µg/mL
2,CC(C)CN1C(=O)c2ccc(NC(=O)c3ccco3)cc2C1=O,4.2 µg/mL
3,COc1cc(S(=O)(=O)n2cnc3ccccc32)ccc1Br,> 55.1 µg/mL
4,CC(C)c1cccc(C(C)C)c1NC(=O)c1ccccc1,1.7 µg/mL
5,O=C(O)[C@H]1Cc2ccccc2CN1S(=O)(=O)c1ccc(F)cc1,> 50.3 µg/mL
6,O=C(NC1CCCC1)c1cc2c(=O)n3ccccc3nc2s1,11.2 µg/mL
7,CC(CC(=O)Nc1ccccc1)n1ccnc1 (configuration not stated),> 34.4 µg/mL
8,O=C(Nc1cccc(C(F)(F)F)c1)c1cncs1,> 40.8 µg/mL
9,CCc1nnc(NC(=O)C2(C)COC(c3ccccc3)OC2)s1 (configuration not stated),> 50 µg/mL
10,COc1ccc(S(=O)(=O)N2CCCCCC2)cc1NC(=O)Cc1ccc(OC)c(OC)c1,22.1 µg/mL
11,O=C(Nc1cccc([N+](=O)[O-])c1)C1C2CC/C=C\CCC21 (configuration not stated),0.8 µg/mL
12,COCCCNC(=O)c1c(N)n(Cc2ccco2)c2nc3ccccc3nc12,4.8 µg/mL
13,Cc1ccc(CCC(=O)Nc2cc(Cl)ccc2Cl)o1,1.9 µg/mL
14,COc1ccc(NC(=O)c2ccco2)cn1,> 32.7 µg/mL
15,COc1ccc(CCNC2=NCCS2)cc1OC,29.7 µg/mL
16,CCCCCCn1c(=O)[nH]c2c(c1=O)CCC2,> 35.4 µg/mL
17,O=c1c2ccccc2ncn1Cc1ccc2c(c1)OCO2,15.1 µg/mL
18,CCOC(=O)c1sc(SC)nc1N,22.2 µg/mL
19,CCN(Cc1ccncc1)C(=S)Nc1ccc(Cl)cc1,> 45.9 µg/mL
20,CCC(C)NC(=O)CN1c2cccc3cccc(c23)S1(=O)=O (configuration not stated),35.5 µg/mL
21,O=C(NCC1CCCO1)c1cc2cc(F)ccc2[nH]1 (configuration not stated),36.8 µg/mL
22,COc1ccc(NC(=O)c2oc3ccccc3c2CSC)cn1,3 µg/mL
23,C=CCOc1cccc(/C=C\c2nc(O)c([N+](=O)[O-])c(=O)[nH]2)c1,> 47.3 µg/mL
24,CC(SC1=NCCN1S(C)(=O)=O)c1ccccc1 (configuration not stated),42.5 µg/mL
25,CCOC(=O)CNC(=O)c1ccc(Cl)s1,> 37.2 µg/mL

row,Structure (SMILES),solubility kinetic
1,CCCCN1C(=O)CCC(C(=O)O)C1c1ccc([N+](=O)[O-])cc1 (configuration not stated),> 48.1 µg/mL
2,O=S(=O)(c1ccc(Cl)cc1)N1CCCC1c1cccnc1 (configuration not stated),> 48.4 µg/mL
3,CC1CCCN(C(=O)COC(=O)Cc2c(F)cccc2Cl)C1 (configuration not stated),40.9 µg/mL
4,COCCn1c(N)c(Sc2ccc(C)cc2)c(=O)[nH]c1=O,> 46.1 µg/mL
5,NS(=O)(=O)c1ccc(NC(=O)COC(=O)c2ccco2)cc1,30 µg/mL
6,COC(=O)c1ccc(COC(=O)c2cccnc2Cl)cc1,37.8 µg/mL
7,O=C(Nc1ccc(Cl)cc1)C1CCN(C(=O)c2ccco2)CC1,> 49.9 µg/mL
8,N/C(=N\C(=S)Nc1ccccc1)c1ccccc1,> 38.3 µg/mL
9,CCOC(=O)c1ccccc1NC(=O)c1cc2ccccc2o1,< 0.7 µg/mL
10,Cl.O=C(OCCN1CCCCC1)c1cccc(F)c1,> 43.2 µg/mL
11,CCCCNC(=O)N1CCCN(c2ccc(C#N)cn2)CC1,> 45.2 µg/mL
12,Cn1c(N)c(C(=O)COC(=O)Cc2ccc(Cl)c(Cl)c2)c(=O)n(C)c1=O,25.7 µg/mL
13,O=C(NCc1ccc(Cl)cc1)c1ccncc1,> 37 µg/mL
14,CC(C)CC(=O)Nc1cc2c3c(c1)C(C)C(=O)N3CCC2 (configuration not stated),> 43 µg/mL
15,COCCSc1nnc(NC(=O)c2ccco2)s1,> 42.8 µg/mL
16,Cc1cc(Cl)cc(C)c1OCCn1ccnc1.Cl,> 43.1 µg/mL
17,CC(C)c1ccc(OCC(=O)NC2CCCC2)cc1,30.2 µg/mL
18,CSc1nc(C)[nH]c(=O)c1C#N,> 27.2 µg/mL
19,CC(C)c1ccc(-c2csc3nc[nH]c(=O)c23)cc1,9.1 µg/mL
20,Cc1cccc(C(=O)Nc2cccc(C(=O)NC3CCCC3)c2)c1,23.6 µg/mL
21,CN(C)C(=O)CN1C(=O)NC2(CCc3ccccc32)C1=O (configuration not stated),> 43.1 µg/mL
22,O/N=C(\CN1CCCCC1)c1ccccc1,> 32.7 µg/mL
23,N#Cc1c(NC(=O)c2ccco2)sc2c1CCC2,9.4 µg/mL
24,Cc1ncc([N+](=O)[O-])n1CCO,> 25.7 µg/mL
25,CCc1ccc(S(=O)(=O)NCc2cccnc2)cc1,31.8 µg/mL

row,Structure (SMILES),solubility kinetic
1,CC(C)Sc1cc(Cl)nc(NC(=O)Nc2ccccc2)n1,0.4 µg/mL
2,Cc1cc(-c2ccc(Cl)cc2Cl)c(C#N)c(=O)[nH]1,3.4 µg/mL
3,O=S(=O)(c1ccccc1)N1CCc2ccccc21,2 µg/mL
4,N#Cc1ccc(C(=O)OCC(=O)NC2CCCC2)cc1,39 µg/mL
5,O=[N+]([O-])c1ccc(NC(=S)N2CCN(c3ccccn3)CC2)cc1,1.4 µg/mL
6,Fc1cc2[nH]c(=S)[nH]c2cc1Cl,26.5 µg/mL
7,CC(=O)Oc1ccc2nc(-c3ccc(Br)o3)oc(=O)c2c1,4.2 µg/mL
8,COc1cccc(C(=O)Nc2cccnc2)c1OC,> 38.7 µg/mL
9,Cc1ccc(S(=O)(=O)N2CCN(C(=O)COC(=O)c3cc([N+](=O)[O-])ccc3NCCO)CC2)c(C)c1,17 µg/mL
10,Nn1c(SCC(=O)NC2CCCc3ccccc32)nnc1C1CC1 (configuration not stated),> 51.5 µg/mL
11,Cc1cc(NC(=O)c2ccc(C)c(C)c2)no1,3.6 µg/mL
12,CCc1ccc(/C=C(\C#N)C(=O)NC2CCS(=O)(=O)C2)cc1 (configuration not stated),7.8 µg/mL
13,COc1ccc(S(=O)(=O)N2CCC(N3CCCC3)CC2)cc1,46.7 µg/mL
14,CCOc1ccc(N/C(C)=C/C(=O)c2ccc3c(c2)OCCO3)cc1,0.8 µg/mL
15,S=C(NCCc1ccccc1)Nc1cnc2ccccc2c1,3.6 µg/mL
16,CN(c1ccccc1)c1nccc(=O)[nH]1,> 30.2 µg/mL
17,CC1CCN(C(=O)Cn2cc(C(F)(F)F)ccc2=O)c2ccccc2S1 (configuration not stated),> 57.4 µg/mL
18,O=C(CCNC(=O)c1ccco1)Nc1ccc(OC(F)F)cc1,43.6 µg/mL
19,CS(=O)(=O)N1CCN(C(=O)CSc2ccccc2)CC1,> 47.2 µg/mL
20,CCCCOc1ccc(C(=O)NCCc2ccccc2)cc1,< 0.6 µg/mL
21,O=C(OCC(=O)N1CCCCC1)c1cc(=O)[nH]c2ccccc12,> 47.2 µg/mL
22,CCOc1cc(C(=O)NC)cc(Br)c1OCc1ccccc1,< 0.8 µg/mL
